Data as given in US20170105969A1, “CENICRIVIROC FOR THE TREATMENT OF HIV-2 INFECTION” (Tobira Therapeutics, Inc., priority 2014, published 2017).
pEC50: −log10 of the molar value. Entries after “also recorded” stand apart in the source; their conditions may differ. Marks after values point to notes of the source that are not given here.

What was measured:
[1] = APRI and FIB-4 fibrosis scores, post-hoc analysis of Study 202; assay type: in vivo, human
Method: Change in score category from baseline (BL) to Weeks 24 and 48 was assessed in patients with non-missing data. Correlations between changes from BL in APRI and FIB-4 scores, and MCP-1 (CCR2 ligand) and sCD14 (inflammatory biomarker) levels were evaluated.

[2] = Study 201: safety and tolerability (adverse events); assay type: in vivo, human
Method: (§1) Subjects were antiretroviral treatment experienced, CCR5 antagonist-naïve, with HIV-1 RNA levels of at least 5000 copies/mL and CD4+ cell counts of at least 250 cells/mm^3. Subjects with HIV-2, hepatitis B virus, or hepatitis C virus co-infection or dual/mixed-tropic HIV-1 were ineligible. Other than their HIV-1 infection, subjects were generally healthy.
In this study, all dose groups received the original formulation (DP3_25), except the 100 mg dose group which received an alternative formulation (DP4_100). […] These subjects were excluded from the efficacy, PK, and PK/PD data, but included in the baseline and safety data. In this study, safety and tolerability were assessed by monitoring AEs, vital signs, ECGs, clinical laboratory values from blood and urine, and physical examinations. Data from all subjects on placebo were pooled for the analyses.

CCR5 = CCR5 (Homo sapiens, UniProt P51681); test: CCR5 receptor occupancy / internalization in PBMCs by flow cytometry; assay type: cell-based
Method: (§2) The capacity of each drug to inhibit CCR5 or CCR2 internalization was evaluated. Cell-surface expression of CCR5 and CCR2 was assessed by flow cytometry, and fluorescence values were converted into molecules of equivalent soluble fluorescence (MESF).

HIV-1 = test: Study 202: virologic response (plasma HIV-1 RNA <50 copies/mL), Snapshot algorithm, ITT; assay type: in vivo, human; conditions: Week 24
Description: The primary efficacy endpoint was the percentage of subjects with plasma HIV-1 RNA <50 copies/mL at Week 24 (using the FDA Snapshot algorithm and the ITT population).

HIV-2 clinical isolates = test: HIV-2 phenotypic susceptibility, ANRS PBMC method; assay type: cell-based; conditions: for pEC50: Human immunodeficiency virus 2, PBMC
Method: All patients were infected with HIV-2 group A. Tropism was determined phenotypically using Ghost(3) cell lines expressing CD4 receptor and one HIV coreceptor, CCR5 or CXCR4. Both Ghost(3) cell lines carries a humanized green fluorescent protein (GFP) gene, under the control of a HIV-2 LTR. […] Ghost(3) cells were provided by the NIH AIDS Reagent program.
Briefly, cell-free HIV-2 positive supernatant was serially diluted (1, 10^−1, and 10^−2) and incubated with PBMC for viral titration. Viruses were tested at a 100 TCID50 titration. Cells were pre-incubated with cenicriviroc or maraviroc at an appropriate concentration 1 hour before viral infection. Six serial dilutions of the antiretroviral drug were tested in quadruplicate. On day 4, viral replication was assessed by a specific viral load assay (Generic HIV-2 viral load, Biocentric, France).

CCR2 = biological target: T1, CCR2 (Homo sapiens, UniProt P41597); test: CCR2 receptor occupancy / internalization in PBMCs (monocytes) by flow cytometry; assay type: cell-based
T1 construct: endogenous in cells; host or cells: monocytes within PBMCs from 5 HIV+ and 5 HIV- subjects
T1 sequence (P41597 1-360 isoform P41597-2): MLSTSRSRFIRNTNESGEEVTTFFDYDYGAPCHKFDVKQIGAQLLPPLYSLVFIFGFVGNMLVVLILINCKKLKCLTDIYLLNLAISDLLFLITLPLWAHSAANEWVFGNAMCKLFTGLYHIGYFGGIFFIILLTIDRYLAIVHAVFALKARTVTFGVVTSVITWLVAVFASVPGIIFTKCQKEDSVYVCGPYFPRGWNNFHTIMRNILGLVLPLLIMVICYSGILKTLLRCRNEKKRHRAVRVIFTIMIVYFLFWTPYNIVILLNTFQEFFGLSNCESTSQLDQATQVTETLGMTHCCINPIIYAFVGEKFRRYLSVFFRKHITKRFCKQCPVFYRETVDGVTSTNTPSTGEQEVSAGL
Method: as §2

MCP-1 = test: Study 201: inflammatory markers MCP-1, hs-CRP, IL-6; assay type: in vivo, human
Description: Exploratory efficacy endpoints included changes in the inflammatory markers MCP-1, hs-CRP, and IL-6.
as §1

[3] = among subjects on CVC presenting with a AE (n=30)
[4] = HIV-2 isolate 10-046, group A, R5
[5] = HIV-2 isolate 10-051, group A, R5
[6] = HIV-2 isolate 10-055, group A, X4
[7] = HIV-2 isolate 10-056, group A, R5
[8] = HIV-2 isolate 10-069, group A, Dual
[9] = HIV-2 isolate 10-074, group A, R5

CCR5, sequence (P51681 whole entry): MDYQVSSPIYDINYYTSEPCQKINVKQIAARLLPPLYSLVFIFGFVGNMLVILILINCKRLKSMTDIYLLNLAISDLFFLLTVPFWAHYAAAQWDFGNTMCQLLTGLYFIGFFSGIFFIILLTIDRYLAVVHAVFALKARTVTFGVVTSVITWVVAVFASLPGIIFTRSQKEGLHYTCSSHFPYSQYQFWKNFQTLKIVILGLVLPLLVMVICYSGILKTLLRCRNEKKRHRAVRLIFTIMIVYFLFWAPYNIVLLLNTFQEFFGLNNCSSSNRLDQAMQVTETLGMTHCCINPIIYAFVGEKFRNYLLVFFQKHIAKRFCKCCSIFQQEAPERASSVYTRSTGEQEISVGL

CCCCOCCOc1ccc(-c2ccc3c(c2)/C=C(/C(=O)Nc2ccc([S@@+]([O-])Cc4cncn4CCC)cc2)CCCN3CC(C)C)cc1 [CVC, (S)-8-[4-(2-Butoxyethoxy)phenyl]-1-isobutyl-N-(4-{[(1-propyl-1H-imidazol-5-yl)methyl]sulfinyl}phenyl)-1,2,3,4-tetrahydro-1-benzazocine-5-carboxamide]
patients in APRI category 0.5-1.5 ([1]; Baseline): 14%
patients in APRI category <0.5 ([1]; Baseline): 84%
patients in APRI category >1.5 ([1]; Baseline): 2%
patients in FIB-4 category 1.45-3.25 ([1]; Baseline): 17%
patients in FIB-4 category <1.45 ([1]; Baseline): 82%
patients in FIB-4 category >3.25 ([1]; Baseline): 1%
APRI: Decreased 1 category from baseline ([1]; Week 24): 14%
FIB-4: Decreased 1 category from baseline ([1]; Week 24): 13%
patients in APRI category 0.5-1.5 ([1]; Week 24): 7%
patients in APRI category <0.5 ([1]; Week 24): 93%
patients in FIB-4 category 1.45-3.25 ([1]; Week 24): 7%
patients in FIB-4 category <1.45 ([1]; Week 24): 93%
APRI: Decreased 1 category from baseline ([1]; Week 48): 10%
FIB-4: Decreased 1 category from baseline ([1]; Week 48): 14%
patients in APRI category 0.5-1.5 ([1]; Week 48): 8%
patients in APRI category <0.5 ([1]; Week 48): 91%
patients in APRI category >1.5 ([1]; Week 48): 1%
patients in FIB-4 category 1.45-3.25 ([1]; Week 48): 5%
patients in FIB-4 category <1.45 ([1]; Week 48): 94%
patients in FIB-4 category >3.25 ([1]; Week 48): 1%
treatment-emergent AE: diarrhea [2]: 16.7%
treatment-emergent AE: fatigue [2]: 11.0%
treatment-emergent AE: headache [2]: 14.8%
treatment-emergent AE: nausea [2]: 18.5%
subjects with mild AEs [2, 3]: 80%
subjects with moderate AEs [2, 3]: 17%
tolerability (in words) ([2]; doses between 25 mg and 150 mg): generally well tolerated
effective concentration at which saturation of CCR5 was reached (CCR5; CD4+ T cells): 3.1 nM
concentration achieving ≧90% receptor occupancy for CCR5 (CCR5; CD4+ T-cells ex vivo in humans): 3.1 nM
effective concentration at which saturation of CCR5 was reached (CCR5; CD8+ T cells): 2.3 nM
concentration achieving ≧90% receptor occupancy for CCR5 (CCR5; CD8+ T-cells ex vivo in humans): 2.3 nM
prevention of RANTES-induced CCR5 internalization (in words) (CCR5; PBMCs): at lower effective concentrations than MVC
cell-surface expression of CCR5 (in words) (CCR5; in the absence of RANTES, PBMCs): increased cell-surface expression of CCR5
virologic non-response, subgroup with high baseline viral load (≧100,000 copies/mL) (HIV-1; CVC 100 mg): 20%
HIV-1 RNA ≧400 copies/mL (HIV-1; CVC 100 mg arm): (7%)
Treatment difference from EFV arm (HIV-1; CVC 100 mg arm): 5%
virologic non-response, subgroup with high baseline viral load (≧100,000 copies/mL) (HIV-1; CVC 200 mg): 29%
Discontinued study due to AE or death (HIV-1; CVC 200 mg arm): (2%)
HIV-1 RNA ≧50 but <400 copies/mL (HIV-1; CVC 200 mg arm): (7%)^e
Treatment difference from EFV arm (HIV-1; CVC 200 mg arm): 4%
MPI (%) (HIV-2 clinical isolates; [4]): 94%
MPI (%) (HIV-2 clinical isolates; [5]): 93%
MPI (%) (HIV-2 clinical isolates; [6]): 4%
MPI (%) (HIV-2 clinical isolates; [7]): 94%
MPI (%) (HIV-2 clinical isolates; [8]): 33%
MPI (%) (HIV-2 clinical isolates; [9]): 98%
pEC50 (HIV-2 clinical isolates; [4]): 10.52
pEC50 (HIV-2 clinical isolates; [5]): 9.35
pEC50 (HIV-2 clinical isolates; [6]): < 6.00
pEC50 (HIV-2 clinical isolates; [7]): 9.48
pEC50 (HIV-2 clinical isolates; [8]): < 6.00
pEC50 (HIV-2 clinical isolates; [9]): 9.01
average concentration required to reach >80% receptor occupancy (CCR2; CCR2, monocytes): 1.8 nM
prevention of MCP-1-induced CCR2 internalization (in words) (CCR2; PBMCs): at lower concentrations than BMS-22
CCR2 cell-surface expression (in words) (CCR2; in the absence of MCP-1, monocytes): induced CCR2 internalization and decreased cell-surface expression on monocytes; also recorded: reduced CCR2 expression on monocytes
concentration at which saturation of monocyte CCR2 was reached (CCR2; monocytes): 6 nM
receptor occupancy at 0.006 µM (CCR2; monocytes, at 6 nM (saturation)): ~98%
MCP-1, Baseline Mean (MCP-1; 25 mg cohort): 20.0 pg/mL
MCP-1, Baseline Median (MCP-1; 25 mg cohort): 16.0 pg/mL
MCP-1, Change from Baseline to Day 10, Median (MCP-1; 25 mg once daily): +25.0 pg/mL
MCP-1, Day 10 Mean (MCP-1; 25 mg once daily): 75.3 pg/mL
MCP-1, Day 10 Median (MCP-1; 25 mg once daily): 39.0 pg/mL
MCP-1, Baseline Mean (MCP-1; 50 mg cohort): 12.6 pg/mL
MCP-1, Baseline Median (MCP-1; 50 mg cohort): 6.0 pg/mL
MCP-1, Change from Baseline to Day 10, Median (MCP-1; 50 mg once daily): +56.0 pg/mL
MCP-1, Day 10 Mean (MCP-1; 50 mg once daily): 101.3 pg/mL
MCP-1, Day 10 Median (MCP-1; 50 mg once daily): 65.0 pg/mL
MCP-1, Baseline Mean (MCP-1; 75 mg cohort): 26.6 pg/mL
MCP-1, Baseline Median (MCP-1; 75 mg cohort): 8.0 pg/mL
MCP-1, Change from Baseline to Day 10, Median (MCP-1; 75 mg once daily): +36.0 pg/mL
MCP-1, Day 10 Mean (MCP-1; 75 mg once daily): 59.1 pg/mL
MCP-1, Day 10 Median (MCP-1; 75 mg once daily): 43.5 pg/mL
MCP-1, Baseline Mean (MCP-1; 150 mg cohort): 31.6 pg/mL
MCP-1, Baseline Median (MCP-1; 150 mg cohort): 19.5 pg/mL
MCP-1, Change from Baseline to Day 10, Median (MCP-1; 150 mg once daily): +322.0 pg/mL
MCP-1, Day 10 Mean (MCP-1; 150 mg once daily): 372.0 pg/mL
MCP-1, Day 10 Median (MCP-1; 150 mg once daily): 368.0 pg/mL
effect on hs-CRP or IL-6 levels (in words) (MCP-1; 10-day study): no effect
